# Data reported in patent publication US6849596B1, “Regulatory/unfolding peptides of ezrin” (priority 1999, dated 2005).
# Entries after “also recorded” stand apart in the source; their conditions may differ.
# How the values were obtained:
# [1] = test system: transplanted cervical cancer CUC-5; test: Transplanted mouse cervical cancer model CUC-5; type: in vivo, CBA mice; settings: for Percent decrease in tumour volume relative to control / Days of life expectancy: CUC-5; for Days of life expectancy: control 47-76
# Text: Anticancer Activity of Hepreceptor Peptides on the Growth of Transplanted Sarcoma of the Uterus SM-322 and on Cancer of the Uterine Cervix CUS-5 Performed in CBA Mice Using Rupe312 and Rupe414 as Examples
# Transplanted mouse cervical cancer model CUC-5 (epithelial tumour)
# Primary tumours were induced in female mice using methylcholantrene. A few primary turnouts were then auto-transplanted into the uterine cervix. The life expectancy of mice with transplanted tumours was 43 days.
# CBA female mice weighed 21.4=/−1.2 g. and were 2-3 months old. The tumours were introduced as a 0.5 ml of tumour suspension (1 g tumour per 10 ml of Igla medium) and ten mice used in each treatment group.
# Lyophylised peptide were dissolved in sterile physiological saline immediately before use in three concentrations. 0.5 ml of solution was injected twice weekly into the peritoneum of the mice for the duration of the experiment. Three different concentrations of peptide were used leading to three final doses per injection per mouse of 10, 1.0 and 0.1 micrograms.
# The average percent decrease of tumour volume relative to the control group was recorded at three time points. The longevity of the mice in the treatment groups and control groups was compared and the histology of the tumours between control and treatment groups was compared.
# [2] = test system: human Peripheral Blood Mononuclear Cells; test: In vitro activation of human PBMC, tritiated thymidine incorporation; type: cell-based; settings: for incorporation of 3H thymidine: three days, Control 370
# Protocol: Peripheral Blood Mononuclear Cells (PBMC) were separated from the peripheral blood of a […] donor using the standard method of fractionation in a ficoll gradient. The PBMC were suspended in culture medium containing RPMI1640 medium plus 10% fetal calf serum, 1 mM L-glutamin and antibiotics (BM). The cell suspension was placed in wells of a 96 hole microwell plate for cell cultivation, (100 microliters of suspension containing 100,000 cells per well). […] The negative control well contained BM but no peptide. The plate was incubated at 37° C. for three days then radioactive ^3H thymidine was added to a final concentration of 1 microcurie per ml. The incorporation of ^3H thymidine into the DNA of the cells was measured using a betacounter using standard procedures. The experiment was repeated twice and the results expressed as an average of the two experiments in radioactive counts per minute.
sequence,measurement,setting,value
KKRRETVERE (Hepreceptor peptide) [Rupe312],Percent decrease in tumour volume relative to control,"[1]; 0.1 Microg/mouse IP twice weekly, Day 8",50%
same,Percent decrease in tumour volume relative to control,"[1]; 0.1 Microg/mouse IP twice weekly, Day 12",18%
same,Percent decrease in tumour volume relative to control,"[1]; 0.1 Microg/mouse IP twice weekly, Day 19",45%
same,Days of life expectancy,[1]; 0.1 Microg/mouse IP twice weekly,42 to 76 days
same,Percent decrease in tumour volume relative to control,"[1]; 1 Microg/mouse IP twice weekly, Day 8",50%
same,Percent decrease in tumour volume relative to control,"[1]; 1 Microg/mouse IP twice weekly, Day 12",26%
same,Percent decrease in tumour volume relative to control,"[1]; 1 Microg/mouse IP twice weekly, Day 19",49%
same,Days of life expectancy,[1]; 1 Microg/mouse IP twice weekly,47 to 76 days
same,Percent decrease in tumour volume relative to control,"[1]; 10 Microg/mouse IP twice weekly, Day 8",50%
same,Percent decrease in tumour volume relative to control,"[1]; 10 Microg/mouse IP twice weekly, Day 12",25%
same,Percent decrease in tumour volume relative to control,"[1]; 10 Microg/mouse IP twice weekly, Day 19",49%
same,Days of life expectancy,[1]; 10 Microg/mouse IP twice weekly,48 to 76 days
same,change in life expectancy,[1]; slower growing transplanted cervical cancer,no significant increase (or decrease) in life expectancy was detected
same,activity relative to HEP1,"[2]; PBMC activation, thymidine incorporation",significantly more active than HEP1; also recorded: ten fold higher activity than HEP1
same,concentration of peak activity,[2]; PBMC proliferation,around 3 nanograms/ml
same,incorporation of 3H thymidine,[2]; Peptide 0.0001 micro g/ml,563 radioactive counts per minute
same,incorporation of 3H thymidine,[2]; Peptide 0.0003 micro g/ml,742 radioactive counts per minute
same,incorporation of 3H thymidine,[2]; Peptide 0.001 micro g/ml,976 radioactive counts per minute
same,incorporation of 3H thymidine,[2]; Peptide 0.003 micro g/ml,3222 radioactive counts per minute
same,incorporation of 3H thymidine,[2]; Peptide 0.01 micro g/ml,656 radioactive counts per minute
same,incorporation of 3H thymidine,[2]; Peptide 0.03 micro g/ml,539 radioactive counts per minute
same,incorporation of 3H thymidine,[2]; Peptide 0.1 micro g/ml,533 radioactive counts per minute
same,incorporation of 3H thymidine,[2]; Peptide 0.3 micro g/ml,611 radioactive counts per minute
same,incorporation of 3H thymidine,[2]; Peptide 1 micro g/ml,472 radioactive counts per minute
same,incorporation of 3H thymidine,[2]; Peptide 3 micro g/ml,455 radioactive counts per minute
same,incorporation of 3H thymidine,[2]; Peptide 10 micro g/ml,405 radioactive counts per minute
